Series [1] relates to MDA-MB-231 cells (human breast cancer cells). As to the kind of experiment: growth inhibition of tumor cells in vitro, MDA-MB-231. Format: cell-based. Particulars: for IC50: Homo sapiens. An excerpt: (§1) We tested compounds target a variety of tumor cell for the growth inhibition to show its antitumor activity by using the method of the field technicians known. Chooses the tumor cell lines include: A549 cell non-small cell lung cancer cell line (people), K562 cells (human chronic myeloid leukemia cells), NCI-H1975 cells (non-small cell lung adenocarcinoma cancer cell), MDA-MB-231 cells (human breast cancer cells) and HCT-116 cells (human colon cancer cells).

The target of series [2] is T1, epidermal growth factor (EGF) (Homo sapiens, UniProt P01133).
T1 construct: epidermal growth factor (EGF)
In words: macromolecular interaction on chip, EGF. Format: binding. The note with it: for KD EGF: compound fixed on the chip, EGF 1 μM. The method, then:
(§2) The experimental scheme: 1. Fixed the compounds on the chip:
(§3) Mobile phase were EGF (1 μM), FGF (1 μM), HSP90 (100 nM), FKBP12 (100 nM).
(§4) Detection whether small molecule compounds combined with the provided protein of heat shock protein (HSP90), epidermal growth factor (EGF) and fibroblast growth factor (FGF); and provide relevant data of combined dynamics.

The target of series [3] is heat shock protein (HSP90). In words: macromolecular interaction on chip, HSP90. The note with it: compound fixed on the chip; HSP90 100 nM. Format: binding. The method, then:
as §2, §3, §4

For series [4], the system named is HCT-116 cells (human colon cancer cells). In words: cells. Format: cell-based. Particulars: for IC50: Homo sapiens.
Description: as §1

Series [5] relates to NCI-H1975 cells (non-small cell lung adenocarcinoma cancer cell). As to the kind of experiment: growth inhibition of tumor cells in vitro, NCI-H1975. Format: cell-based. Particulars: for IC50: Homo sapiens.
Description: as §1

Series [6] concerns the target fibroblast growth factor (FGF). As to the kind of experiment: macromolecular interaction on chip, FGF. Format: binding. The note with it: compound fixed on the chip; FGF 1 μM. The method, then: as §2, §3, §4
The test system of series [7] is HCT-116 transplanted tumors. Particulars: for Tumor volume size: day 23, x ± SE; for Inhibitory rate: day 23. The method, then: Digesting collecting cells after the desired amount of cells. Diluting the cells into 250 million/ml cell suspension with 5 A culture medium containing 10% fetal bovine serum. […] Stay around tumor growth to 1 g tissue block, cutting short diameter growth of around 1 mm plaque, by inserting a catheter method. […] Compound of low dose group and high dose group were given by gavages once a week, respectively. The group of irinotecan and 5-fluorouracil were treated by intravenous every three days. Recording changes in body weight in mice, and tumors size three times a week.

Series [8] deals with A549 lung transplantation tumor model and RM-1 (prostate) transplantation tumor model. In words: antitumor activity in vivo, transplanted tumor models in kunming mice. The note with it: intraperitoneal injection.
Description: Using the known in the field of technology, the antitumor activity of compounds in vivo was tested in kunming mice transplanted tumor model. The transplantation tumor models tested including A549 lung transplantation tumor model and RM-1 (prostate) transplantation tumor model. We conducted the tests by intraperitoneal injection.
The subject of series [9] is K562 cells (human chronic myeloid leukemia cells). In words: growth inhibition of tumor cells in vitro, K562. Format: cell-based. Particulars: K562 cell line, read-out: IC50 K562.
Description: as §1

For series [10], the system named is A549 cell non-small cell lung cancer cell line. In words: growth inhibition of tumor cells in vitro, A549. In kind it is cell-based, human. The note with it: Homo sapiens, A549, A549 cell line; read-out: IC50 A549.
Description: as §1

[11] abbreviates: MDA-MB-231, read-out: IC50 MDA-MB-231.
Setting [12] is: HCT-116, read-out: IC50 HCT-116.
The mark [13] stands for this setting: NCI-H1975, read-out: IC50 NCI-H1975.
[14] abbreviates: MDA-MB-231 cell line, read-out: IC50 MDA-MB-231.
[15] abbreviates: HCT-116 cell line, read-out: IC50 HCT-116.
Setting [16] is: NCI-H1975 cell line, read-out: IC50 NCI-H1975.
[17] abbreviates: 20 mg/kg intravenous every three days.

A word on the Kd: it is the free concentration of one partner at which half of the binding sites on the other are occupied at equilibrium, for simple one-to-one binding. Higher therefore signals weaker binding. Usually melting point stands for the temperature of the solid-liquid transition.

Where “and” joins values, the source holds several entries; their conditions need not be identical. Equal values may be shown once. Read-outs that look alike come from different tables or passages of the source. Marks after values point to notes of the source that are not given here.

T1 sequence (P01133 971-1023 limits assumed, species assumed): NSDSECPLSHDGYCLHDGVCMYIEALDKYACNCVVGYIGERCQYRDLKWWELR

As to `CC[C@@]1(O)C(=O)OCc2c1cc1n(c2=O)Cc2c-1nc1cc3c(cc1c2-c1ccncc1)OCO3` [Compound 21, 20(S)-7-(pyridin-4-yl)-10,11-methylenedioxy-camptothecin], the IC50 in [1] (setting [11]) was 4.92 ± 0.36 nM; in series [4] (setting [12]), 0.74 ± 0.07 nM; in [5] (setting [13]), 20.4 ± 3.65 nM. Also, the equilibrium dissociation constant (Kd) in [2] worked out at 49.3 nM; in series [6], 18.9 nM. Also, in series [2], the “KD EGF” value is “can combine”. In addition, the “KD HSP90” value in [3] is listed as “No combination”. For the same molecule, the “KD FGF” value in series [6] is “can combine”.
In the case of `CC[C@@]1(O)C(=O)OCc2c1cc1n(c2=O)Cc2c-1nc1cc3c(cc1c2-c1ccsc1)OCO3` [Compound 24, 20(S)-7-(thiophene-3-yl)-10,11-methylenedioxy-camptothecin], the IC50 was found to be 1.93 ± 0.26 nM in [1] (setting [14]), 0.21 ± 0.02 nM in [4] (setting [15]) and 16.2 ± 0.83 nM in series [5] (setting [16]). Also, the “KD EGF” value in series [2] is given as “No combination”. Further, in [3], the “KD HSP90” value is given as “No combination”. Also, in series [4], the “ranking of cytotoxic activity in HCT-116” value was “best cytotoxic activity”. Also, in series [6], the “KD FGF” value was “No combination”.
Regarding `CC[C@@]1(O)C(=O)OCc2c1cc1n(c2=O)Cc2c-1nc1cc3c(cc1c2-c1cccnc1)OCO3` [Compound 22, 20(S)-7-(pyridin-3-yl)-10,11-methylenedioxy-camptothecin], the IC50 was found to be 4.09 ± 0.46 nM in series [1] (setting [11]), 0.18 ± 0.03 nM in series [4] (setting [12]) and 12.6 ± 2.43 nM in [5] (setting [13]).
Take `CC[C@@]1(O)C(=O)OCc2c1cc1n(c2=O)Cc2c-1nc1cc3c(cc1c2-c1ccoc1)OCO3` [Compound 23, 20(S)-7-(furan-3-yl)-10,11-methylenedioxy-camptothecin]: the IC50 in series [1] (setting [14]) stood at 83.8 ± 6.64 nM; in series [4] (setting [15]), 2.97 ± 0.25 nM; in series [5] (setting [16]), 95.5 ± 5.57 nM. In addition, in [2], the “KD EGF” value was “No combination”. Moreover, in series [3], the “KD HSP90” value is listed as “No combination”. In addition, in [7] (high and low dose group, weight returned after 10 days but still lower than control), the mice weight change entry was “declined”. The Tumor volume size in [7] (high dose 5 mg/kg, gavage once a week) is given as 19.94 ± 2.17*^a mm^3; in [7] (low dose 2.5 mg/kg, gavage once a week), 100.52 ± 20.45*^a mm^3. In addition, the Inhibitory rate is 87.04% and 95.45^a % in series [7] (high dose 5 mg/kg, gavage once a week, 5 mg/kg); 95.45% and 87.04^a % in [7] (low dose 2.5 mg/kg, gavage once a week, 2.5 mg/kg). Further, the “antitumor activity in vivo compared with topotecan” value in series [8] is “better than that of topotecan”. Besides, the “KD FGF” value in series [6] is on record as “No combination”.
Consider `CC[C@@]1(O)C(=O)OCc2c1cc1n(c2=O)Cc2c-1nc1cc3c(cc1c2-c1ccco1)OCO3` [Compound 27, 20(S)-7-(furan-2-yl)-10,11-methylenedioxy-camptothecin], for which the IC50 came out at 1.79 ± 0.14 nM in series [1] (setting [11]), 0.25 ± 0.01 nM in series [4] (setting [12]) and 4.53 ± 0.16 nM in series [5] (setting [13]).
In the same order, the values of `CC[C@@]1(O)C(=O)OCc2c1cc1n(c2=O)Cc2c-1nc1cc3c(cc1c2-c1cnn(C2CCCCO2)c1)OCO3` (stereo partly shown) [Compound 28] are 1.56 ± 0.14 nM, 0.78 ± 0.06 nM and 7.97 ± 0.52 nM.
As to `CC[C@@]1(O)C(=O)OCc2c1cc1n(c2=O)Cc2c-1nc1cc3c(cc1c2CCN1CCOCC1)OCO3` [Compound 51, 20(S)-7-(2-morpholinoethyl)-10,11-methylenedioxy-camptothecin], in [2], the dissociation constant (Kd) turned out to be 4.15 nM and the “KD EGF” value is recorded as “can combine”. Also, the “KD HSP90” value in series [3] is given as “No combination”. The IC50 in series [9] was determined as 13 ± 3.25 nM. Moreover, the “antitumor activity in vivo compared with topotecan” value in [8] was “better than that of topotecan”. Moreover, in series [6], the “KD FGF” value is given as “can combine” and the Kd stood at 46 nM.
Regarding `CC[C@@]1(O)C(=O)OCc2c1cc1n(c2=O)Cc2c-1nc1cc3c(cc1c2CCc1ccc(N2CCCC2)c(F)c1)OCO3` [Compound 11, 20(S)-7-(3-fluoro-4-(pyrrolidin-1-yl))-10,11-methylenedioxy-camptothecin], the melting point is over 250 °C. For the same molecule, the IC50 in series [9] came out at 305 ± 8.75 nM. The “antitumor activity in vivo compared with topotecan” value in series [8] is recorded as “better than that of topotecan”.
For `O=c1[nH]cc(F)c(=O)[nH]1` [5 - fluorouracil, 5-fluorouracil, reference compound], in [7] (setting [17]), the Inhibitory rate was 55.64^a % and the Tumor volume size is 342.28 ± 128.00^a mm^3.
Turning to `CC[C@@]1(O)C(=O)OCc2c1cc1n(c2=O)Cc2c-1nc1cc3c(cc1c2CCc1ccccc1N1CCOCC1)OCO3` [Compound 15], the melting point is over 250 °C. Besides, the “antitumor activity in vivo compared with topotecan” value in [8] was “better than that of topotecan”.
With `CC[C@@]1(O)C(=O)OCc2c1cc1n(c2=O)Cc2c-1nc1cc3c(cc1c2-c1ccc2[nH]ccc2c1)OCO3` [Compound 29], the values for the IC50 in [1] (setting [11]), in series [4] (setting [12]) and in [5] (setting [13]) were 7.98 ± 0.72 nM, 1.84 ± 0.11 nM and 79.7 ± 3.52 nM, respectively.
On to `CC[C@@]1(O)C(=O)OCc2c1cc1n(c2=O)Cc2c-1nc1cc3c(cc1c2-c1ccnn1C)OCO3` [Compound 30], for which the IC50 came to 43.4 ± 2.18 nM in [1] (setting [11]), 0.93 ± 0.08 nM in series [4] (setting [12]) and 37.3 ± 2.82 nM in [5] (setting [13]).
As to `CC[C@@]1(O)C(=O)OCc2c1cc1n(c2=O)Cc2c-1nc1cc3c(cc1c2-c1cnn(C)c1)OCO3` [Compound 25, 20(S)-7-(1-methyl-1H-pyrazol-4-yl)-10,11-methylenedioxy-camptothecin], the values for the IC50 in series [1] (setting [14]), in series [4] (setting [15]) and in series [5] (setting [16]) were 3.76 ± 1.08 nM, 0.34 ± 0.06 nM and 35.2 ± 3.15 nM, respectively. Also, the “KD EGF” value in series [2] is reported as “No combination”. Further, the “KD HSP90” value in series [3] is reported as “No combination”. In addition, in series [6], the “KD FGF” value was “No combination”.
As to `CCc1c2c(nc3ccc(OC(=O)N4CCC(N5CCCCC5)CC4)cc13)-c1cc3c(c(=O)n1C2)COC(=O)[C@]3(O)CC` [Irinotecan, reference compound], in series [7] (6 mg/kg intravenous every three days), the Inhibitory rate is given as 78.12^a %.
For the molecule `CC[C@@]1(O)C(=O)OCc2c1cc1n(c2=O)Cc2c-1nc1cc3c(cc1c2-c1cccs1)OCO3` [Compound 26, 20(S)-7-(thiophene-2-yl)-10,11-methylenedioxy-camptothecin], the IC50 came out at 0.56 ± 0.03 nM in series [1] (setting [11]), 102 ± 6.18 nM in series [4] (setting [12]) and 0.36 ± 0.06 nM in series [5] (setting [13]). Besides, in series [1] (among Table 2 compounds), the “ranking of activity in MDA-MB-231” value is listed as “best activities”. Also, in series [5] (among Table 2 compounds), the “ranking of activity in NCI-H1975” value is listed as “best activities”.
On to `CC[C@@]1(O)C(=O)OCc2c1cc1n(c2=O)Cc2cc3c(CN(C)C)c(O)ccc3nc2-1` [Topotecan, reference compound], for which the IC50 in series [1] (setting [14]) is 123 ± 18.2 nM; in [9], 636 ± 8.95 nM; in [4] (setting [15]), over 500 nM; in series [5] (setting [16]), over 500 nM; in [10], 559 ± 8.6 nM. Also, the “KD EGF” value in series [2] is “No combination”. The “KD HSP90” value in series [3] is given as “No combination”. Also, in series [6], the “KD FGF” value is given as “No combination”.
